The target of this assay is T1, RORc ligand binding domain (Homo sapiens, UniProt P51449).
T1 construct: host or cells: E. coli
T1 sequence (P51449 269-508 limits assumed): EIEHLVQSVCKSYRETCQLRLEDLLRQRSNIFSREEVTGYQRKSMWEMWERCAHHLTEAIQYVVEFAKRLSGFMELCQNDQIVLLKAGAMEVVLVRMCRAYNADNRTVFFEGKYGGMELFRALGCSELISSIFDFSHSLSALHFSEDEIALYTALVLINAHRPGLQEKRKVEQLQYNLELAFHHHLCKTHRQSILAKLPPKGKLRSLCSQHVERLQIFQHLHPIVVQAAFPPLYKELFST
Kind of assay: In vitro RORc ligand binding assay (25-[3H]hydroxycholesterol displacement, filter binding).
A word on the IC50: it is the concentration that gives 50% inhibition. A high value points to weaker potency in that assay. For the compound `CC1(C)[C@H]2CC[C@]1([C@H]1CCCN(C(=O)c3c[nH]c(=O)cn3)C1)c1nnc(-c3c(F)cccc3F)cc12` [Compound 121, 5-[3-[5-(2,6-difluorophenyl)-11,11-dimethyl-3,4-diazatricyclo[6.2.1.02,7]undeca-2,4,6-trien-1-yl]piperidine-1-carbonyl]-1H-pyrazin-2-one], the half-maximal inhibitory concentration (IC50) is 11 nM.
The same measure for `CC1(C)[C@H]2CC[C@]1(C1CCC(=O)NC1)c1nnc(-c3c(F)cccc3F)cc12` (stereo partly shown) [Compound 116, 5-[5-(2,6-difluorophenyl)-11,11-dimethyl-3,4-diazatricyclo[6.2.1.02,7]undeca-2,4,6-trien-1-yl]piperidin-2-one]: 74 nM; for `Cc1nnc(CO[C@@]23CC[C@@H](c4cc(-c5c(F)cccc5F)nnc42)C3(C)C)o1` [Compound 8, 2-((((5S,8R)-3-(2,6-difluorophenyl)-9,9-dimethyl-5,6,7,8-tetrahydro-5,8-methanocinnolin-8-yl)oxy)methyl)-5-methyl-1,3,4-oxadiazole]: 140 nM; for `CC1(C)[C@H]2CC[C@]1([C@H]1CN(c3nc(CO)co3)CCO1)c1nnc(-c3c(F)cccc3F)cc12` [Compound 128, [2-[2-[5-(2,6-difluorophenyl)-11,11-dimethyl-3,4-diazatricyclo[6.2.1.02,7]undeca-2,4,6-trien-1-yl]morpholin-4-yl]oxazol-4-yl]methanol]: 37 nM.
Regarding `CC[C@@H](O[C@]12CC[C@H](c3cc(-c4c(F)cccc4F)nnc31)C2(C)C)C(=O)O` [Compound 113, (2R)-2-[[(1S,8R)-5-(2,6-difluorophenyl)-11,11-dimethyl-3,4-diazatricyclo[6.2.1.02,7]undeca-2,4,6-trien-1-yl]oxy]butanoic acid], the half-maximal inhibitory concentration (IC50) came out at 47 nM.
In turn, `CNC(=O)N1CCC[C@H]([C@@]23CC[C@@H](c4cc(-c5c(F)cccc5F)nnc42)C3(C)C)C1` [Compound 96, (R)-3-((5R,8R)-3-(2,6-difluorophenyl)-9,9-dimethyl-5,6,7,8-tetrahydro-5,8-methanocinnolin-8-yl)-N-methylpiperidine-1-carboxamide] returned an IC50 of 13 nM.
For the compound `CNC(=O)N1CCO[C@@H]([C@@]23CC[C@@H](c4cc(-c5c(F)cccc5F)nnc42)C3(C)C)C1` [Compound 74, (S)-2-((5R,8R)-3-(2,6-difluorophenyl)-9,9-dimethyl-5,6,7,8-tetrahydro-5,8-methanocinnolin-8-yl)-N-methylmorpholine-4-carboxamide], the IC50 was 24 nM.
With `CC1(C)[C@H]2CC[C@]1([C@H]1CCCN(C(=O)c3cn[nH]c3)C1)c1nnc(-c3c(F)cccc3F)cc12` [Compound 167, [3-[5-(2,6-difluorophenyl)-11,11-dimethyl-3,4-diazatricyclo[6.2.1.02,7]undeca-2,4,6-trien-1-yl]-1-piperidyl]-(1H-pyrazol-4-yl)methanone], the IC50 is 8.3 nM.
With `CN1CCN(C(N)=O)[C@@H]([C@@]23CC[C@@H](c4cc(-c5c(F)cccc5F)nnc42)C3(C)C)C1` [Compound 181, 2-[5-(2,6-difluorophenyl)-11,11-dimethyl-3,4-diazatricyclo[6.2.1.02,7]undeca-2,4,6-trien-1-yl]-4-methyl-piperazine-1-carboxamide], the IC50 is 62 nM.
Compound `CNC(=O)c1cnc(O[C@@]23CC[C@@H](c4cc(-c5c(F)cccc5F)nnc42)C3(C)C)cn1` [Compound 9, 5-(((5S,8R)-3-(2,6-difluorophenyl)-9,9-dimethyl-5,6,7,8-tetrahydro-5,8-methanocinnolin-8-yl)oxy)-N-methylpyrazine-2-carboxamide] displayed a concentration for half-maximal inhibition (IC50) of 325 nM.
In turn, `CN(C)C(=O)N1CCO[C@H]([C@@]23CC[C@@H](c4cc(-c5c(F)cccc5F)nnc42)C3(C)C)C1` [Compound 88, (R)-2-((5R,8R)-3-(2,6-difluorophenyl)-9,9-dimethyl-5,6,7,8-tetrahydro-5,8-methanocinnolin-8-yl)-N,N-dimethylmorpholine-4-carboxamide] displayed an IC50 of 369 nM.
Regarding `CC1(C)[C@H]2CC[C@]1([C@H]1CCCN(C(=O)c3ccon3)C1)c1nnc(-c3c(F)cccc3F)cc12` [Compound 131, [3-[5-(2,6-difluorophenyl)-11,11-dimethyl-3,4-diazatricyclo[6.2.1.02,7]undeca-2,4,6-trien-1-yl]-1-piperidyl]-isoxazol-3-yl-methanone], the half-maximal inhibitory concentration (IC50) worked out at 6.2 nM.
`CC1(C)[C@H]2CC[C@]1([C@H]1CN(CC(F)F)CCO1)c1nnc(-c3c(F)cccc3F)cc12` [Compound 80, (S)-4-(2,2-difluoroethyl)-2-((5R,8R)-3-(2,6-difluorophenyl)-9,9-dimethyl-5,6,7,8-tetrahydro-5,8-methanocinnolin-8-yl)morpholine] yielded an IC50 of 674 nM.
Regarding `CC(=O)N1CCO[C@H]([C@@]23CC[C@@H](c4cc(-c5c(F)cccc5F)nnc42)C3(C)C)C1` [Compound 64, 1-((R)-2-((5R,8R)-3-(2,6-difluorophenyl)-9,9-dimethyl-5,6,7,8-tetrahydro-5,8-methanocinnolin-8-yl)morpholino)ethanone], the concentration for half-maximal inhibition (IC50) came to 308 nM.
For `CC1(C)[C@H]2CC[C@]1(OCc1cnccn1)c1nnc(-c3c(F)cccc3F)cc12` [Compound 17, (5S,8R)-3-(2,6-difluorophenyl)-9,9-dimethyl-8-(pyrazin-2-ylmethoxy)-5,6,7,8-tetrahydro-5,8-methanocinnoline], the IC50 turned out to be 133 nM.
Regarding `CN(C)C(=O)N1CCC[C@H]([C@@]23CC[C@@H](c4cc(-c5c(F)cccc5F)nnc42)C3(C)C)C1` [Compound 97, (R)-3-((5R,8R)-3-(2,6-difluorophenyl)-9,9-dimethyl-5,6,7,8-tetrahydro-5,8-methanocinnolin-8-yl)-N,N-dimethylpiperidine-1-carboxamide], the IC50 is 98.5 nM.
In turn, `CC1(C)[C@H]2CC[C@]1(Oc1nccnc1C(=O)NCCO)c1nnc(-c3c(F)cccc3F)cc12` [Compound 18, 3-(((5S,8R)-3-(2,6-difluorophenyl)-9,9-dimethyl-5,6,7,8-tetrahydro-5,8-methanocinnolin-8-yl)oxy)-N-(2-hydroxyethyl)pyrazine-2-carboxamide] had an IC50 of 340 nM.
`CC[C@H](O[C@@]12CC[C@@H](c3cc(-c4c(F)cccc4F)nnc31)C2(C)C)c1nnc(C)o1` [Compound 21, 2-((S)-1-(((5S,8R)-3-(2,6-difluorophenyl)-9,9-dimethyl-5,6,7,8-tetrahydro-5,8-methanocinnolin-8-yl)oxy)propyl)-5-methyl-1,3,4-oxadiazole] displayed an IC50 of 51 nM.
The same measure for `CC1(C)[C@H]2CC[C@]1([C@H]1CCCN(c3cc[nH]c(=O)c3)C1)c1nnc(-c3c(F)cccc3F)cc12` [Compound 172, 4-[3-[5-(2,6-difluorophenyl)-11,11-dimethyl-3,4-diazatricyclo[6.2.1.02,7]undeca-2,4,6-trien-1-yl]-1-piperidyl]-1H-pyridin-2-one]: 20 nM; for `CC[C@@H](O[C@@]12CC[C@@H](c3cc(-c4c(F)cccc4F)nnc31)C2(C)C)C(=O)N(C)C` [Compound 36, (R)-2-(((5S,8R)-3-(2,6-difluorophenyl)-9,9-dimethyl-5,6,7,8-tetrahydro-5,8-methanocinnolin-8-yl)oxy)-N,N-dimethylbutanamide]: 54.3 nM.
The same measure for `CC1(C)[C@H]2CC[C@]1([C@H]1CN(C(N)=O)CCO1)c1nnc(-c3c(F)cccc3F)cc12` [Compound 81, (S)-2-((5R,8R)-3-(2,6-difluorophenyl)-9,9-dimethyl-5,6,7,8-tetrahydro-5,8-methanocinnolin-8-yl)morpholine-4-carboxamide]: 66.2 nM; for `CN1CCNC[C@H]1[C@@]12CC[C@@H](c3cc(-c4c(F)cccc4F)nnc31)C2(C)C` [Compound 178, 5-(2,6-difluorophenyl)-11,11-dimethyl-1-(1-methylpiperazin-2-yl)-3,4-diazatricyclo[6.2.1.02,7]undeca-2,4,6-triene]: 13 nM; for `CC1(C)[C@H]2CC[C@]1(OCc1ncccn1)c1nnc(-c3c(F)cccc3F)cc12` [Compound 13, (5S,8R)-3-(2,6-difluorophenyl)-9,9-dimethyl-8-(pyrimidin-2-ylmethoxy)-5,6,7,8-tetrahydro-5,8-methanocinnoline]: 515 nM.
The same measure for `CC[C@@H](O[C@@]12CC[C@@H](c3cc(-c4c(F)cccc4F)nnc31)C2(C)C)C(=O)N1CC(CO)C1` [Compound 38, (R)-2-(((5S,8R)-3-(2,6-difluorophenyl)-9,9-dimethyl-5,6,7,8-tetrahydro-5,8-methanocinnolin-8-yl)oxy)-1-(3-(hydroxymethyl)azetidin-1-yl)butan-1-one]: 144 nM.
Turning to `Cc1noc(N2CCO[C@@H]([C@@]34CC[C@@H](c5cc(-c6c(F)cccc6F)nnc53)C4(C)C)C2)n1` [Compound 91, (S)-2-((5R,8R)-3-(2,6-difluorophenyl)-9,9-dimethyl-5,6,7,8-tetrahydro-5,8-methanocinnolin-8-yl)-4-(3-methyl-1,2,4-oxadiazol-5-yl)morpholine], the IC50 was 101 nM.
`CN1CCN(C(N)=O)C[C@H]1[C@@]12CC[C@@H](c3cc(-c4c(F)cccc4F)nnc31)C2(C)C` [Compound 179, 3-[5-(2,6-difluorophenyl)-11,11-dimethyl-3,4-diazatricyclo[6.2.1.02,7]undeca-2,4,6-trien-1-yl]-4-methyl-piperazine-1-carboxamide]: the IC50 was 2.9 nM.
As for `CC1(C)[C@H]2CC[C@]1([C@@H]1CCCNC1=O)c1nnc(-c3c(F)cccc3F)cc12` [Compound 139, 3-[5-(2,6-difluorophenyl)-11,11-dimethyl-3,4-diazatricyclo[6.2.1.02,7]undeca-2,4,6-trien-1-yl]piperidin-2-one], the concentration for half-maximal inhibition (IC50) stood at 4400 nM.
Consider `CC1(C)[C@H]2CC[C@]1([C@@H]1CN(C(N)=O)CCO1)c1nnc(-c3c(F)cccc3F)cc12` [Compound 68, (R)-2-((5R,8R)-3-(2,6-difluorophenyl)-9,9-dimethyl-5,6,7,8-tetrahydro-5,8-methanocinnolin-8-yl)morpholine-4-carboxamide], for which the half-inhibitory concentration (IC50) is 56.8 nM.

The record behind these values is US9994551B2, “Pyridazine derivatives as RORc modulators” (Genentech, Inc., priority 2015, dated 2018).
